According to US9670213B2, “Pteridine ketone derivative and applications thereof as EGFR, BLK, and FLT3 inhibitor” (EAST CHINA UNIVERSITY OF SCIENCE AND TECHNOLOGY, priority 2012, dated 2017):

Tests used:
Type in all cases: biochemical
EGFR-L858R = EGFR-L858R (Homo sapiens (Human), UniProt P00533, L858R); assay: In vitro EGFR kinase activity assay (Z'-Lyte); details: read-out: Inhibitory activity on EGFR kinase (IC50, nM) L858R;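 also: Cell-free kinase reaction with peptide substrate and ATP, 1.5 h at room temperature, then development step cleaving non-phosphorylated peptide, 10-point dilution series 0.051–1000 nM, phosphopeptide as 100% phosphorylation control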
Protocol: Inhibitory effects in vitro of the compounds provided in the present invention on EGFR kinase activity was tested as follows:
10 concentration gradients, from 5.1×10^−11 mol/L to 1.0×10^−6 mol/L, were set for all of the compounds to be tested.
10 μL of kinase reaction system comprised 2.5 μL of compound solution, 5 μL of Kinase/peptide mixture, and 2.5 μL of ATP solution. 5 μL of phosphopeptide solution was used in place of kinase/peptide mixture as 100% phosphorylation control. […] After thoroughly mixing the solution within the plate, the plate was incubated at room temperature for 1.5 hours. 5 μL of DevelopmentSolution was added into each well, and then the plate was incubated at room temperature for another 1 hour, and non-phosphorylated peptide was cleaved within this period. Finally, the reaction was quenched by adding 5 μL of Stop Reagent. The Plate was measured with EnVision Multilabel Reader (Perkin Elmer). Experimental data were calculated by using GraphPad Prism version 4.0. Each experiment was repeated more than three times.

ABL = ABL (Homo sapiens (Human), UniProt P00519); assay: Kinase selectivity analysis (Caliper mobility shift assay)
Protocol: (§1) Kinase selectivity analysis: kinase selectivity experiment was performed by Shanghai ChemPartner using Caliper assay screening platform. All of kinases and other materials were purchased from commercial companies.
(§2) 3. Preparation of assay plate: 5 μL of solution from each well of the 96-well temporary plate was added into a 384-well plate, and the experiment was independently repeated.
(§3) 5. Caliper readings: experimental data were collected on Caliper.
(§4) 6. Curve fitting: 1) conversion data were replicated from Caliper program. 2) the conversion value was converted into inhibition rate, inhibition rate %=(maximum−conversion value)/(maximum−minimum)*100, wherein “maximum” represents DMSO control, and minimum represents the low control.

AUR B = AUR B (Homo sapiens (Human), UniProt Q96GD4); assay: as above
Protocol: as §1, §2, §3, §4

BLK = BLK (Homo sapiens (Human), UniProt P51451); assay: as above
BLK, sequence (P51451 whole entry): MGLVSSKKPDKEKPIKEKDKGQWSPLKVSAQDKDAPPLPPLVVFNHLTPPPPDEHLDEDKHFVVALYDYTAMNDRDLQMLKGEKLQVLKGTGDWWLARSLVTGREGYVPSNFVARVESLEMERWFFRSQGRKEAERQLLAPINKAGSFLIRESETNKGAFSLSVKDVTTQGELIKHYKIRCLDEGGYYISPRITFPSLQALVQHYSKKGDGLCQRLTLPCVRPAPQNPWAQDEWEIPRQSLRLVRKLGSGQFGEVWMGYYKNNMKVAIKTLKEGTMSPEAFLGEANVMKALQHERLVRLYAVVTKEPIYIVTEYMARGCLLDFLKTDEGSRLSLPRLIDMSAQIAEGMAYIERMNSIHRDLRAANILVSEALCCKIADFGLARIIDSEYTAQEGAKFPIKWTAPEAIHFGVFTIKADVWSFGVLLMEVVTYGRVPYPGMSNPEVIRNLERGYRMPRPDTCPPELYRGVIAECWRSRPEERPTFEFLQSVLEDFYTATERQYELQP
Protocol: as §1, §2, §3, §4

C-MET = C-MET (Homo sapiens (Human), UniProt P08581); assay: as above
C-MET, sequence (P08581 25-1390): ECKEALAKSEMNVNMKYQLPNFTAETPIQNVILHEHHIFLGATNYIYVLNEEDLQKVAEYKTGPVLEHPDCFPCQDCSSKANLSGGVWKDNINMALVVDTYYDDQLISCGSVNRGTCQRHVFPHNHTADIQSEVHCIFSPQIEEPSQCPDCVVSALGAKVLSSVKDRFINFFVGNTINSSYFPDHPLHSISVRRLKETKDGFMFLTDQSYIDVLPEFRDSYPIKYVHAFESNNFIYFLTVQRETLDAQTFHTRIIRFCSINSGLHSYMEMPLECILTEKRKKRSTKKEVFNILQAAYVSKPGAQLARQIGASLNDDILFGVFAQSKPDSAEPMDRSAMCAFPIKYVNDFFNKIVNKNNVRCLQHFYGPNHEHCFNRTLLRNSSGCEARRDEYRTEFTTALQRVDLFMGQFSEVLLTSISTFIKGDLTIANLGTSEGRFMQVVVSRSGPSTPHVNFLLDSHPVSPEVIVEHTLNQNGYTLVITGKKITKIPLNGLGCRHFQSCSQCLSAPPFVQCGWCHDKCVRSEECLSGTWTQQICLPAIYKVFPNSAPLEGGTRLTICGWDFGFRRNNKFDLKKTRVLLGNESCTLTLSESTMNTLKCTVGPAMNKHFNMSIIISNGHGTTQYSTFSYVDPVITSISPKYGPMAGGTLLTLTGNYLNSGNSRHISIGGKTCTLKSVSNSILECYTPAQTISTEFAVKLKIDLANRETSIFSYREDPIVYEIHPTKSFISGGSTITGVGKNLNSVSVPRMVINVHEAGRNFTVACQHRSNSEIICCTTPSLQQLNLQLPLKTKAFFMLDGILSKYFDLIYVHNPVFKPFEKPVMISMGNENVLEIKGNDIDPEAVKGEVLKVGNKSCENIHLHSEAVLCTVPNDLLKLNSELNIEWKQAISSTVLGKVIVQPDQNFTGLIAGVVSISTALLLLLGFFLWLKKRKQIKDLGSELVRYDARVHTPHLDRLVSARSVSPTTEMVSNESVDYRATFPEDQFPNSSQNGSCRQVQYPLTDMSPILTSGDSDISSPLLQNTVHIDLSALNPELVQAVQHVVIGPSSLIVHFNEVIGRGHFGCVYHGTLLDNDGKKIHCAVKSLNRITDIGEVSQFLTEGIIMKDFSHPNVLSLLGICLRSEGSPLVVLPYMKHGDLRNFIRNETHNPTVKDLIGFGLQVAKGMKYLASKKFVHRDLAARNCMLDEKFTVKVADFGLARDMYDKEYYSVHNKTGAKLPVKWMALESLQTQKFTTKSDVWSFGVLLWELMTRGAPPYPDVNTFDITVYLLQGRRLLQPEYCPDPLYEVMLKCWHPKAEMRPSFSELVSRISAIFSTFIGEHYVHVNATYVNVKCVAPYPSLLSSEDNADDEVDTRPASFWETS
Protocol: as §1, §2, §3, §4

CDK2 = CDK2 (Homo sapiens (Human), UniProt P24941); assay: as above
Protocol: as §1, §2, §3, §4

ERK1 = ERK1 (Homo sapiens (Human), UniProt P27361); assay: as above
ERK1, sequence (P27361 whole entry, species assumed): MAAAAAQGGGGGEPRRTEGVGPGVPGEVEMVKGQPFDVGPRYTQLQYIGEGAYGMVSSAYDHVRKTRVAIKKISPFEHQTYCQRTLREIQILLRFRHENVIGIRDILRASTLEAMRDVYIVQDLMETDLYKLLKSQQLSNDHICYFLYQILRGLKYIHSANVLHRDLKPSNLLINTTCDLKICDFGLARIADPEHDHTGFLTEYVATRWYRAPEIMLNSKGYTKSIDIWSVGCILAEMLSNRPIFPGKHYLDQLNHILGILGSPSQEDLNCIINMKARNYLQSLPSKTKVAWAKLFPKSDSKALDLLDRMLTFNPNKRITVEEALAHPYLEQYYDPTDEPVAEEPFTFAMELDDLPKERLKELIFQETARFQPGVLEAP
Protocol: as §1, §2, §3, §4

FGFR1 = FGFR1 (Homo sapiens (Human), UniProt P11362); assay: as above
Protocol: as §1, §2, §3, §4

FGFR3 = FGFR3 (Homo sapiens (Human), UniProt P22607); assay: as above
Protocol: as §1, §2, §3, §4

FLT1 = FLT1 (Homo sapiens (Human), UniProt P17948); assay: as above
FLT1, sequence (P17948 27-1338, species assumed): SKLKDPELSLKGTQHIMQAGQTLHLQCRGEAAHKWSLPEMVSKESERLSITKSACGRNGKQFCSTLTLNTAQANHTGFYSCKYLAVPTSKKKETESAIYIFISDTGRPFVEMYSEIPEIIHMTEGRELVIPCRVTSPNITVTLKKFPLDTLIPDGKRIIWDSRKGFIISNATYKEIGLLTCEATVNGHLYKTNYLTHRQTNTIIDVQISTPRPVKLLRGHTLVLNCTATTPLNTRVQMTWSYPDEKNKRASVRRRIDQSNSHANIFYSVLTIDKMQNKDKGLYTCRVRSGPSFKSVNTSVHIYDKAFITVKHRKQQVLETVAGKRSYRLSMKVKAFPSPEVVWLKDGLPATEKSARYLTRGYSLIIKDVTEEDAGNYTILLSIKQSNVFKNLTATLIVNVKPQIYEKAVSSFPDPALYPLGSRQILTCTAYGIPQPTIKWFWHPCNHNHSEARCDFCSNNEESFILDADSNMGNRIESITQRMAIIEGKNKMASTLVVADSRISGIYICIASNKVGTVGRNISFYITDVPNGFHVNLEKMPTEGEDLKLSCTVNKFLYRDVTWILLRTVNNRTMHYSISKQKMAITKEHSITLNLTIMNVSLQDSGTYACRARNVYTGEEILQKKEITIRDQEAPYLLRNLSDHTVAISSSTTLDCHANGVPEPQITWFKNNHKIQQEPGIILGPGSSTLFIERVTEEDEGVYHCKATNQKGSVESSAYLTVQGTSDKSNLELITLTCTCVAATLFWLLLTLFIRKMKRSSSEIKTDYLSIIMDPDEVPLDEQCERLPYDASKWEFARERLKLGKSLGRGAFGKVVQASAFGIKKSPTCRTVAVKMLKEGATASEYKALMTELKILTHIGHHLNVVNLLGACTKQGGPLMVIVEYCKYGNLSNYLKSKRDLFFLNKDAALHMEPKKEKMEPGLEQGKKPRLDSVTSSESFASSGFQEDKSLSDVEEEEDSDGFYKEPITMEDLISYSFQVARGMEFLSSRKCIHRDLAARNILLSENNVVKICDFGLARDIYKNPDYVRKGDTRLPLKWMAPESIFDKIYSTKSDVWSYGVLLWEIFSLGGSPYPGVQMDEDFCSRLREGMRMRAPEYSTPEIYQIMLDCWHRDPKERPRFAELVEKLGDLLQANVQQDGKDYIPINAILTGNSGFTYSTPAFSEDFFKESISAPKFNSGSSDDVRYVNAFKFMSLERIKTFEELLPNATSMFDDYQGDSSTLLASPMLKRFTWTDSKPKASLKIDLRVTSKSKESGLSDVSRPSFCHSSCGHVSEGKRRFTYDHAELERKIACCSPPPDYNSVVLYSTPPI
Protocol: as §1, §2, §3, §4

FLT3 = FLT3 (Homo sapiens (Human), UniProt P36888); assay: as above
Protocol: as §1, §2, §3, §4

GSK3b = GSK3b (Homo sapiens (Human), UniProt P49841); assay: as above
Protocol: as §1, §2, §3, §4

HER2 = HER2 (Homo sapiens (Human), UniProt P04626); assay: as above
Protocol: as §1, §2, §3, §4

HER4 = HER4 (Homo sapiens (Human), UniProt Q15303); assay: as above
Protocol: as §1, §2, §3, §4

IGF1R = IGF1R (Homo sapiens (Human), UniProt P08069); assay: as above
Protocol: as §1, §2, §3, §4

IKKB = IKKB (Homo sapiens (Human), UniProt O14920); assay: as above
IKKB, sequence (O14920 whole entry, species assumed): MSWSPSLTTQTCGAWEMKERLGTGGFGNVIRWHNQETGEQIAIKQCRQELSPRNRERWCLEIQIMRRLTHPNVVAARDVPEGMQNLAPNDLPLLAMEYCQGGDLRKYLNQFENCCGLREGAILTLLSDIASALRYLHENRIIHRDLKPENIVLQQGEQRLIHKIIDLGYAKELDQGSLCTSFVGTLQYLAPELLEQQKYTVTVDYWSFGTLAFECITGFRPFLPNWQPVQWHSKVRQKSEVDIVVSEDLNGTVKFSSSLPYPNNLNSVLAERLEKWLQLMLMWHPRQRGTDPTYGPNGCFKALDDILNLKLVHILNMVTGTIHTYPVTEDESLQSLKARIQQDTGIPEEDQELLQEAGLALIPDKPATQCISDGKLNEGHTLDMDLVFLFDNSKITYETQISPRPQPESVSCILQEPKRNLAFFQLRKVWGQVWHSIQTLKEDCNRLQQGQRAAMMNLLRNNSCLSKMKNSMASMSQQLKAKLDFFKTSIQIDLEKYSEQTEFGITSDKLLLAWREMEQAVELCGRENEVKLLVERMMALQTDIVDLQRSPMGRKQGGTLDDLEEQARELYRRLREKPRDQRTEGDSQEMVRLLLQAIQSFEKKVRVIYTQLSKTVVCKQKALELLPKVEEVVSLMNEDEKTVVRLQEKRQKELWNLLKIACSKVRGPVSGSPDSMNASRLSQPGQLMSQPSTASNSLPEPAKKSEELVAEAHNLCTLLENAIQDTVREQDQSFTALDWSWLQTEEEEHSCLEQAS
Protocol: as §1, §2, §3, §4

JAK2 = JAK2 (Homo sapiens (Human), UniProt O60674); assay: as above
Protocol: as §1, §2, §3, §4

KDR = KDR (Homo sapiens (Human), UniProt P35968); assay: as above
Protocol: as §1, §2, §3, §4

LCK = LCK (Homo sapiens (Human), UniProt P06239); assay: as above
Protocol: as §1, §2, §3, §4

LYNA = LYNA (Homo sapiens (Human), UniProt P07948); assay: as above
Protocol: as §1, §2, §3, §4

P38a = P38a (Homo sapiens (Human), UniProt Q16539); assay: as above
P38a, sequence (Q16539 whole entry): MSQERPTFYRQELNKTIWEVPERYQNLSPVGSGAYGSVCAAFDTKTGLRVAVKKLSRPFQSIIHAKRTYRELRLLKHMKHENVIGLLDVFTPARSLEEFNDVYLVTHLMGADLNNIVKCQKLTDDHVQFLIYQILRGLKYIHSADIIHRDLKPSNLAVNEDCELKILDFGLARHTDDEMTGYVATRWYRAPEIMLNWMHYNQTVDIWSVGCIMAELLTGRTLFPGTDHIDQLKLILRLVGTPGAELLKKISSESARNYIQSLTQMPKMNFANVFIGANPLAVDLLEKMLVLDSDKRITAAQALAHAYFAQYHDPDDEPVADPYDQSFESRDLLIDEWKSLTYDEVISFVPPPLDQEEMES
Protocol: as §1, §2, §3, §4

PDGFRa = PDGFRa (Homo sapiens (Human), UniProt P16234); assay: as above
Protocol: as §1, §2, §3, §4

PDGFRb = PDGFRb (Homo sapiens (Human), UniProt P09619); assay: as above
Protocol: as §1, §2, §3, §4

PIM1 = PIM1 (Homo sapiens (Human), UniProt P11309); assay: as above
PIM1, sequence (P11309 whole entry, species assumed): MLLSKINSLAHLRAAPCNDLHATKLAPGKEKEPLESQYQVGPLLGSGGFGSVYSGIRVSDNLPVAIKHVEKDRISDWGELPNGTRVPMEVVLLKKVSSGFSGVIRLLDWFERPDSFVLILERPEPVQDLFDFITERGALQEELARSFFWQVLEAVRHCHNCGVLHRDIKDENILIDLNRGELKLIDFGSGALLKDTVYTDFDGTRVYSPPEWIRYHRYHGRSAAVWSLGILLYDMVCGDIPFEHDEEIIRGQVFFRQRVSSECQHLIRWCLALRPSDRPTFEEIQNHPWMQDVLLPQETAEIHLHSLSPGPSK
Protocol: as §1, §2, §3, §4

PKACa = PKACa (Homo sapiens (Human), UniProt P17612); assay: as above
Protocol: as §1, §2, §3, §4

SRC = SRC (Homo sapiens (Human), UniProt P12931); assay: as above
Protocol: as §1, §2, §3, §4

cKit = cKit (Homo sapiens (Human), UniProt P10721); assay: as above
Protocol: as §1, §2, §3, §4

[1] = read-out: % inhibition (1 μM), 1 μM
[2] = read-out: % inhibition (10 μM), 10 μM

IC50 (EGFR-L858R): 2.36 nM
inhibition at 1 µM (ABL; [1]): 5.8%
inhibition at 10 µM (ABL; [2]): 13%
inhibition at 1 µM (AUR B; [1]): 32%
inhibition at 10 µM (AUR B; [2]): 69%
inhibition at 1 µM (BLK; [1]): 85%
inhibition at 10 µM (BLK; [2]): 99%
inhibition at 1 µM (C-MET; [1]): 13%
inhibition at 10 µM (C-MET; [2]): 28%
inhibition at 1 µM (CDK2; read-out: % inhibition (1 μM), CDK2, 1 μM): 25%
inhibition at 10 µM (CDK2; read-out: % inhibition (10 μM), CDK2, 10 μM): 48%
inhibition at 1 µM (ERK1; read-out: % inhibition (1 μM), ERK1, 1 μM): 11%
inhibition at 10 µM (ERK1; read-out: % inhibition (10 μM), ERK1, 10 μM): -4%
inhibition at 1 µM (FGFR1; read-out: % inhibition (1 μM), FGFR1, 1 μM): 7.9%
inhibition at 10 µM (FGFR1; read-out: % inhibition (10 μM), FGFR1, 10 μM): 42%
inhibition at 1 µM (FGFR3; read-out: % inhibition (1 μM), FGFR3, 1 μM): 11%
inhibition at 10 µM (FGFR3; read-out: % inhibition (10 μM), FGFR3, 10 μM): 13%
inhibition at 1 µM (FLT1; read-out: % inhibition (1 μM), FLT1, 1 μM): 9.4%
inhibition at 10 µM (FLT1; read-out: % inhibition (10 μM), FLT1, 10 μM): 11%
inhibition at 1 µM (FLT3; read-out: % inhibition (1 μM), FLT3, 1 μM): 60%
inhibition at 10 µM (FLT3; read-out: % inhibition (10 μM), FLT3, 10 μM): 91%
inhibition at 1 µM (GSK3b; [1]): 12%
inhibition at 10 µM (GSK3b; [2]): 16%
inhibition at 1 µM (HER2; read-out: % inhibition (1 μM), HER2, 1 μM): 89%
inhibition at 10 µM (HER2; read-out: % inhibition (10 μM), HER2, 10 μM): 100%
inhibition at 1 µM (HER4; read-out: % inhibition (1 μM), HER4, 1 μM): 60%
inhibition at 10 µM (HER4; read-out: % inhibition (10 μM), HER4, 10 μM): 77%
inhibition at 1 µM (IGF1R; [1]): 15%
inhibition at 10 µM (IGF1R; [2]): 37%
inhibition at 1 µM (IKKB; [1]): -3.3%
inhibition at 10 µM (IKKB; [2]): -4.3%
inhibition at 1 µM (JAK2; read-out: % inhibition (1 μM), JAK2, 1 μM): 9.9%
inhibition at 10 µM (JAK2; read-out: % inhibition (10 μM), JAK2, 10 μM): 22%
inhibition at 1 µM (KDR; [1]): 3.8%
inhibition at 10 µM (KDR; [2]): 29%
inhibition at 1 µM (LCK; [1]): 14%
inhibition at 10 µM (LCK; [2]): 54%
inhibition at 1 µM (LYNA; [1]): 6.1%
inhibition at 10 µM (LYNA; [2]): 20%
inhibition at 1 µM (P38a; [1]): -5.6%
inhibition at 10 µM (P38a; [2]): 1.2%
inhibition at 1 µM (PDGFRa; [1]): 1.2%
inhibition at 10 µM (PDGFRa; [2]): 18%
inhibition at 1 µM (PDGFRb; [1]): 14%
inhibition at 10 µM (PDGFRb; [2]): 61%
inhibition at 1 µM (PIM1; read-out: % inhibition (1 μM), PIM1, 1 μM): 2.1%
inhibition at 10 µM (PIM1; read-out: % inhibition (10 μM), PIM1, 10 μM): 8.9%
inhibition at 1 µM (PKACa; [1]): 6.9%
inhibition at 10 µM (PKACa; [2]): 4%
inhibition at 1 µM (SRC; [1]): 6.6%
inhibition at 10 µM (SRC; [2]): 33%
inhibition at 1 µM (cKit; [1]): -9.3%
inhibition at 10 µM (cKit; [2]): -4.8%
SMILES: C=CC(=O)Nc1cccc(-n2c(=O)cnc3cnc(Nc4ccc(N5CCN(C)CC5)cc4OC)nc32)c1 [Compound 032, N-(3-(2-(2-methoxy-4-(4-methyl-1-piperazinyl)-phenylamino)-7-oxo-8(7H)-pteridin-yl)phenyl)acrylamide]
